Columns and labels:
[1] = system: Tau phosphorylation at Ser396 (pSer396); experiment: Tau phosphorylation at Ser396 (pSer396) in SH-SY5Y cells, ELISA / western blot; assay type: cell-based, human; conditions: Homo sapiens; SH-SY5Y cells, overnight (16-18 h); read-out: pSer396 Tau EC50;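 note: decrease in pSer396 Tau measured in lysates of treated cells by colorimetric ELISA or chemiluminescent western blot, same pSer396 antibody for both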
Description: Two days before treatment, cells were seeded onto 96 well plates at 5×10^4 cells/well.
The above synthesized compounds were screened using the cell assay procedure to assess decrease Tau phosphorylation at Ser396 (pSer396) described below.
Cells were lysed with RIPA buffer complemented with phosphatase and protease inhibitors then lysates were spun down at 12,000 g for 10 min to remove any cellular debris.

[2] = system: secreted cytokines TNFα, IL-6 and KC-GRO; experiment: Secreted cytokines in Lipopolysaccharide-stimulated BV-2 cells (Table 9 does not say which cytokine); assay type: cell-based, mouse; conditions: Mus musculus, BV-2, 5 h; read-out: EC50
Description: BV-2 cells (mouse microglial cells) were cultured in 1:1 DMEM medium supplemented with 10% FBS, and 1% penicillin/streptomycin.
BV-2 cells are plated at 35,000 cells/well in a volume of 100 μl for at least 4 hours before compounds are added. […] Compounds were added to cells overnight. […] Supernatant is removed and saved for further cytokine detection. The original plates with seeded cells were tested for cytotoxicity by measure of adenosine triphosphate (ATP) release by adding CellTiter-Glo® diluted 1:4 in distilled water (G7573, Promega) and transferring lysed cells to a completely black 96-well plate to be read with the Cytation3. Supernatant was then diluted 1:2 with a diluent from V-PLEX cytokine Kit and directly tested for the secreted cytokines TNFα, IL-6 and KC-GRO using electrochemiluminescence (Meso Scale Discovery). The standard curve for each cytokine was used to convert the electrochemiluminescent signal into pg of protein per mL.

[3] = system: Wnt-responsive Sp5-Luc reporter in SW480 colon carcinoma cells; experiment: Screening assay for Wnt activity (Sp5-Luc reporter gene assay); conditions: Homo sapiens; for EC50: SW480; for inhibition at 10 µM: SW480, read-out: percent inhibition at 10 μM
[4] = system: SW480 colon carcinoma cells; experiment: Cell viability assay (CellTiter-Glo); conditions: Homo sapiens; for EC50: SW480, 96 h; for inhibition at 10 µM: SW480, read-out: percent inhibition at 10 μM
DYRK1A kinase = DYRK1A kinase (Homo sapiens, UniProt Q13627); experiment: DYRK1A kinase activity (Ser/Thr 18 peptide Z-lyte FRET assay); assay type: biochemical; conditions: recombinant DYRK1A, 30 μM ATP, one hour at room temperature;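 note: kinase activity read as coumarin/fluorescein emission ratio after development step, with unphosphorylated and phosphorylated peptide forms setting 0% and 100% controls, values from dose-response curves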
GSK3β kinase = GSK3β kinase (Homo sapiens, UniProt P49841); experiment: GSK3β kinase activity (Ser/Thr 09 peptide Z-lyte FRET assay); assay type: biochemical; conditions: recombinant kinase, 46 μM ATP, one hour at room temperature; read-out: EC50
[5] = system: α-smooth muscle actin (aSMA) positive LL29 cells; experiment: Inhibition of the fibrotic process: αSMA staining in TGF-β1 treated LL29 fibroblasts from IPF patients; conditions: Homo sapiens, Fibroblast; for EC50: 96 h; for inhibition at 10 µM: read-out: percentage in parentheses after EC50 >10
IL-6 = IL-6 inhibition in LPS-stimulated human peripheral blood mononuclear cells (HTRF); conditions: Homo sapiens, PBMC; for EC50: 22 h; for inhibition at 10 µM: read-out: percentage in parentheses after EC50 >10
Description: Each compound was dissolved in DMSO (Catalog # D8418-100 ml, Sigma-Aldrich, St. Louis, Mo.) as a 10 mM stock and used to prepare compound source plates. […] After 22 hour incubation, a mixture of anti-IL6 XL665 and anti-IL-6 Cryptate diluted in reconstitution buffer (Catalog #62IL6PEC, Cisbio Inc., Bedford, Mass.) was added to each well. […] All samples were processed in duplicate. […] EC50 was determined using software generated by Dotmatics Limited (Windhill Bishops Stortford Herts, UK) using the Levenberg-Marquardt 4 parameter fitting procedure with finite different gradients.

Chain of GSK3β kinase (P49841 whole entry): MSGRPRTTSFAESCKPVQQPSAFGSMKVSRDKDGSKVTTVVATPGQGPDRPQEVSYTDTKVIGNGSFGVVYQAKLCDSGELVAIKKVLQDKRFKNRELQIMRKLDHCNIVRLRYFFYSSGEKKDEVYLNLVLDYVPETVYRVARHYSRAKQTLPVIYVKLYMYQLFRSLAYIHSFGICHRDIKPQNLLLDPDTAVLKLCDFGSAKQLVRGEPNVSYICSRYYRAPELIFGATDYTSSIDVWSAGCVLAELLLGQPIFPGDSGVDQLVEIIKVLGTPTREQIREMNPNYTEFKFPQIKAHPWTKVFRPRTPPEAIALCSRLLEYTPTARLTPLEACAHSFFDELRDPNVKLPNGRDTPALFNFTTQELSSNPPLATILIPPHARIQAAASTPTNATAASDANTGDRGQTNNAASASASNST

Structure (SMILES) | EC50 [1] [nM] | EC50 [2] [nM] | EC50 [3] [nM] | EC50 [4] [nM] | EC50 (DYRK1A kinase) [nM] | EC50 (GSK3β kinase) [nM] | EC50 (IL-6) [nM] | EC50 [5] [nM] | inhibition at 10 µM (IL-6) [%] | inhibition at 10 µM [3] [%] | inhibition at 10 µM [4] [%] | inhibition at 10 µM [5] [%]
O=C(Nc1ncc2ccc(-c3cccnc3)cc2n1)C1CC1 [Compound 1670, N-(7-(Pyridin-3-yl)quinazolin-2-yl)cyclopropanecarboxamide] | 604 | 2900 | 3710 | 9050 | 6 | 120 | > 10000 | 4850 | 7.2 | – | – | –
Cn1cc(-c2cnc3cnc(NC(=O)C4CC4)cc3c2)cn1 [Compound 2722, N-(3-(1-Methyl-1H-pyrazol-4-yl)-1,7-naphthyridin-6-yl) cyclopropanecarboxamide] | 6010 | 822 | > 10000 | > 10000 | 23 | 326 | 8900 | 1010 | – | 13.7 | 31 | –
Cn1cc(-c2cnc3cnc(NC(=O)C4CCNCC4)cc3c2)cn1 [Compound 2731, N-(3-(1-Methyl-1H-pyrazol-4-yl)-1,7-naphthyridin-6-yl)piperidine-4-carboxamide] | > 10000 | 1200 | > 10000 | > 10000 | 21 | 5510 | > 10000 | 5320 | 2.8 | 30.9 | 26.5 | –
CC(C)CN1CCC(C(=O)Nc2cc3cc(-c4cnn(C)c4)cnc3cn2)CC1 [Compound 2736, 1-Isobutyl-N-(3-(1-methyl-1H-pyrazol-4-yl)-1,7-naphthyridin-6-yl) piperidine-4-carboxamide] | > 10000 | 109 | > 10000 | > 10000 | 30 | 3730 | > 10000 | > 10000 | 0 | 19.3 | 10.7 | 17
Cn1ncc(-c2cnc3cnc(NC(=O)C4CC5(C4)CN(CCF)C5)cc3c2)c1CN1CCCCC1 [Compound 3000, 2-(2-Fluoroethyl)-N-(3-(1-methyl-5-(piperidin-1-ylmethyl)-1H-pyrazol-4-yl)-1,7-naphthyridin-6-yl)-2-azaspiro[3.3]heptane-6-carboxamide] | 1830 | 307 | 1950 | 5950 | 10 | 166 | 2260 | 9890 | – | – | – | –
Cn1cncc1-c1cnc2cnc(NC(=O)C3CCC(F)(F)CC3)cc2c1 [Compound 3120, 4,4-Difluoro-N-(3-(1-methyl-1H-imidazol-5-yl)-1,7-naphthyridin-6-yl) cyclohexane-1-carboxamide] | 2430 | 649 | > 10000 | > 10000 | 9 | 1330 | > 10000 | > 10000 | 7.4 | 16.2 | 21.4 | 27
O=C(Nc1cc2cc(-c3cnco3)cnc2cn1)C1CCN(C(=O)CN2CCCC2)CC1 [Compound 3249, N-(3-(Oxazol-5-yl)-1,7-naphthyridin-6-yl)-1-(2-(pyrrolidin-1-yl)acetyl)piperidine-4-carboxamide] | 10000 | 1200 | > 10000 | > 10000 | 26 | 6120 | 8320 | 7060 | – | 31.5 | 26.7 | –
Cn1cc(-c2cc3cc(NC(=O)C4CCN(Cc5ncco5)CC4)ncc3cn2)cn1 [Compound 3723, N-(6-(1-Methyl-1H-pyrazol-4-yl)-2,7-naphthyridin-3-yl)-1-(oxazol-2-ylmethyl)piperidine-4-carboxamide] | 252 | 94 | 842 | > 10000 | 2 | 10 | > 10000 | > 10000 | 2.8 | – | 43.7 | 9.1
CN1CCCN(CC(=O)Nc2cc3cc(-c4cnn(C)c4)ncc3cn2)CC1 [Compound 3733, 2-(4-Methyl-1,4-diazepan-1-yl)-N-(6-(1-methyl-1H-pyrazol-4-yl)-2,7-naphthyridin-3-yl)acetamide] | 227 | 3700 | 515 | > 10000 | 16 | 43 | > 10000 | 1830 | 6.2 | – | 37.3 | –
CN1CCC(Oc2ccc(C(=O)Nc3cc4cc(-c5cnn(C)c5)ncc4cn3)cc2)CC1 [Compound 3772, N-(6-(1-Methyl-1H-pyrazol-4-yl)-2,7-naphthyridin-3-yl)-4-((1-methylpiperidin-4-yl)oxy)benzamide] | 7280 | ≥ 10000 | 221 | 8160 | 8 | 390 | > 10000 | 1140 | 10.6 | – | – | –

These reach a lower EC50 [1]. Values come first.

EC50 [1] [nM] | EC50 [2] [nM] | EC50 [3] [nM] | EC50 [4] [nM] | EC50 (DYRK1A kinase) [nM] | EC50 (GSK3β kinase) [nM] | EC50 (IL-6) [nM] | Structure (SMILES) | EC50 [5] [nM] | inhibition at 10 µM (IL-6) [%] | inhibition at 10 µM [3] [%] | inhibition at 10 µM [4] [%] | inhibition at 10 µM [5] [%]
21 | 5700 | 396 | 951 | 7 | 2 | 2760 | Cn1cc(-c2cc3cc(NC(=O)C4CC4)ncc3cn2)cn1 [Compound 3629, N-(6-(1-Methyl-1H-pyrazol-4-yl)-2,7-naphthyridin-3-yl) cyclopropanecarboxamide] | 97 | – | – | – | –
79 | > 10000 | 219 | 9580 | 2 | 4 | 9040 | Cn1cc(-c2cc3cc(NC(=O)C4CCN(CCC(F)(F)F)CC4)ncc3cn2)cn1 [Compound 3646, N-(6-(1-Methyl-1H-pyrazol-4-yl)-2,7-naphthyridin-3-yl)-1-(3,3,3-trifluoropropyl)piperidine-4-carboxamide] | > 10000 | – | – | – | 12.9
192 | 6800 | 512 | 6900 | 7 | 21 | > 10000 | C[C@H]1CCCN1CC(=O)Nc1cc2cc(-c3cnn(C)c3)ncc2cn1 [Compound 3674, (S)—N-(6-(1-Methyl-1H-pyrazol-4-yl)-2,7-naphthyridin-3-yl)-2-(2-methylpyrrolidin-1-yl)acetamide] | 604 | 1.7 | – | – | –
179 | > 10000 | 603 | > 10000 | 8 | 10 | > 10000 | CN(CC(=O)Nc1cc2cc(-c3cnn(C)c3)ncc2cn1)C1CCC1 [Compound 3683, 2-(Cyclobutyl(methyl)amino)-N-(6-(1-methyl-1H-pyrazol-4-yl)-2,7-naphthyridin-3-yl)acetamide] | 597 | 4.6 | – | 38.8 | –
156 | > 10000 | 370 | > 10000 | 71 | 8 | > 10000 | Cn1cc(-c2cc3cc(NC(=O)[C@H]4CCCN4)ncc3cn2)cn1 [Compound 3689, (R)—N-(6-(1-Methyl-1H-pyrazol-4-yl)-2,7-naphthyridin-3-yl)pyrrolidine-2-carboxamide] | 893 | 7.6 | – | 28.8 | –
76 | 4800 | 288 | 6900 | 64 | 9 | > 10000 | CC(C(=O)Nc1cc2cc(-c3cnn(C)c3)ncc2cn1)N1CCCCC1 (stereo not drawn) [Compound 3698, N-(6-(1-Methyl-1H-pyrazol-4-yl)-2,7-naphthyridin-3-yl)-2-(piperidin-1-yl) propanamide] | 1070 | 4.6 | – | – | –
43 | > 10000 | 234 | 6720 | 2 | 6 | > 10000 | Cn1cc(-c2cc3cc(NC(=O)C4CCN(S(C)(=O)=O)CC4)ncc3cn2)cn1 [Compound 3699, N-(6-(1-Methyl-1H-pyrazol-4-yl)-2,7-naphthyridin-3-yl)-1-(methylsulfonyl) piperidine-4-carboxamide] | 25 | 8.4 | – | – | –
210 | 1620 | 845 | 6020 | 10 | 8 | 5700 | Cn1cc(-c2cc3cc(NC(=O)CC4CNCCO4)ncc3cn2)cn1 (stereo not drawn) [Compound 3714, N-(6-(1-Methyl-1H-pyrazol-4-yl)-2,7-naphthyridin-3-yl)-2-(morpholin-2-yl) acetamide] | 1540 | – | – | – | –
